Results as given in paper PMC10746280, “Bacterial efflux pump modulators prevent bacterial growth in macrophages and under broth conditions that mimic the host environment” (mBio, 2023).

What was measured:
RAW 264.7 macrophages = assay: SAFIRE macrophage assay: host toxicity (adherent macrophage count, morphology); type: cell-based
Description: (§1) In SAFIRE, we used MATLAB software to count the number of macrophages that remain adherent and retain the red fluorescence of MitoTracker, an indicator of voltage across the mitochondrial inner membrane. MATLAB then calculates the signal from bacteria (green fluorescent protein [GFP]) that overlaps with macrophages, as defined by MitoTracker, to estimate bacterial load. […] For example, we observed that the 6-trifluoropyrimidin-2-yl group on the right-hand side of EPM35 is apparently toxic to macrophages. Non-toxic analogs that reduced bacterial load by at least 60% at 5 µM and 25 µM in SAFIRE, as compared with DMSO, progressed and were evaluated in SAFIRE across eight or more concentrations, ranging from 0.001 µM to 50 µM (n = 2). […] Each of the top 13 analogs had at least an eightfold increase in potency and were not toxic for macrophages at 50 µM in the SAFIRE assay (Fig. 1C).
(§2) As previously described ([18]), RAW 264.7 macrophages (between passages 1 and 6) were grown in complete Dulbecco’s modified Eagle’s medium (DMEM) to approximately 70% to 90% confluence, scraped, washed, resuspended, diluted to 5 × 10^4 in 100 µL, and seeded in black, 96-well, glass-bottomed plates (Brooks Life Sciences catalog number MGB096-1-2-LG-L) at 37°C with 5% CO2. Twenty-four hours later, bacteria grown overnight in LB were diluted into 50 µL phosphate buffered saline (PBS) and added to a final concentration of 1 × 10^7 S. Typhimurium SL1344 (sifB::gfp) per milliliter ([78]) for an approximate multiplicity of infection of 30 bacteria per macrophage cell. Forty-five minutes after bacterial addition, gentamicin (Sigma catalog number G1264) was added to a final concentration of 40 µg/mL to inhibit the growth of remaining extracellular bacteria. Two hours after infection, gentamicin-containing medium was removed and replaced with 200 µL fresh DMEM with compound or DMSO (Sigma catalog number 276855) to the stated final concentrations. At 17.5 h after infection, PBS containing MitoTracker Red CMXRos (Life Technologies catalog number M7512), a vital dye for mitochondrial electric potential, was added to a final concentration of 100 nM. At 18 h after infection, 16% paraformaldehyde was added to a final concentration of 4% and incubated at room temperature for 15 min. Cells were washed twice with PBS and stained for 20 min with 1 µM 4′,6-diamidino-2-phenylindole (DAPI), a vital dye for double-stranded DNA, and stored in 90% glycerol in PBS until imaging. Samples were imaged in six fields of view per well using a semiautomated Yokogawa CellVoyager CV1000 confocal scanner system with a 20×, 0.75-numerical aperture (NA) objective. A MATLAB algorithm calculated bacterial accumulation (GFP fluorescence) within macrophages, as defined by DAPI and MitoTracker Red. GFP^+ macrophage area was defined as the number of GFP-positive pixels per macrophage divided by the total number of pixels per macrophage, averaged across all macrophages in the field ([34]).

[1] = test system: S. Typhimurium SL1344 (sifB::gfp) in RAW 264.7 macrophages; assay: SAFIRE macrophage assay: intracellular bacterial load (GFP signal within macrophages); type: cell-based, Salmonella enterica serotype Typhimurium; details: 'Toxic' given instead of a score
Description: as §1, §2

| Structure (SMILES) | 5 uM Avg Cell # Score (RAW 264.7 macrophages) | 25 uM Avg Cell # Score (RAW 264.7 macrophages) | 5 uM Avg Antibacterial Score [1] | 25 uM Avg Antibacterial Score [1] |
| --- | --- | --- | --- | --- |
| NC(=O)[C@H]1CC[C@@H](NCC(O)COc2ccc(Cl)c(Cl)c2)C1 (stereo partly drawn) [CU066] | 91 | 86 | 103 | 100 |
| NC(=O)N1CCN(CC(O)COc2ccc(Cl)c(Cl)c2)CC1 (stereo not drawn) [CU067] | 79 | 88 | 104 | 101 |
| O=C(NC1CCN(CC(O)COc2ccc(Cl)c(Cl)c2)C1)c1ccccc1 (stereo not drawn) [CU068] | 80 | 49 | 20 | Toxic |
| CC(C)C(=O)NC1CCN(CC(O)COc2ccc(Cl)c(Cl)c2)C1 (stereo not drawn) [CU069] | 96 | 94 | 95 | 52 |
| OC(CNCCNc1nccc(C(F)(F)F)n1)COc1ccc(Cl)c(Cl)c1 (stereo not drawn) [CU070] | 49 | 65 | Toxic | Toxic |
| CC(=O)N(CCNc1nccc(C(F)(F)F)n1)CC(O)COc1ccc(Cl)c(Cl)c1 (stereo not drawn) [CU071] | 62 | 56 | 85 | Toxic |
| CC(C)N(CCNc1nccc(C(F)(F)F)n1)CC(O)COc1ccc(Cl)c(Cl)c1 (stereo not drawn) [CU072] | 62 | 94 | Toxic | Toxic |
| O=C(O)C1CCN(CC(O)COc2ccc(Cl)c(Cl)c2)CC1 (stereo not drawn) [CU073] | 100 | 140 | 102 | 101 |
| CCc1ccc(OCC(O)CN2CCC(Nc3nccc(C(F)(F)F)n3)CC2)cc1 (stereo not drawn) [CU074] | 71 | 114 | 10 | Toxic |
| COC(=O)c1ccc(OCC(O)CN2CCC(Nc3nccc(C(F)(F)F)n3)CC2)cc1 (stereo not drawn) [CU075] | 86 | 56 | 68 | Toxic |
| CC(=O)Nc1ccc(OCC(O)CN2CCC(Nc3nccc(C(F)(F)F)n3)CC2)cc1 (stereo not drawn) [CU076] | 79 | 86 | 102 | 103 |
| OC(COc1ccc(-c2ccccc2)cc1)CN1CCC(Nc2nccc(C(F)(F)F)n2)CC1 (stereo not drawn) [CU077] | 35 | 114 | 11 | Toxic |
| OC(COc1ccc2ccccc2c1)CN1CCC(Nc2nccc(C(F)(F)F)n2)CC1 (stereo not drawn) [CU078] | 87 | 133 | 7.5 | Toxic |
| OC(COc1cccc2ccccc12)CN1CCC(Nc2nccc(C(F)(F)F)n2)CC1 (stereo not drawn) [CU079] | 86 | 89 | 6.41 | Toxic |
| OC(COc1ccc2c(c1)OCO2)CN1CCC(Nc2nccc(C(F)(F)F)n2)CC1 (stereo not drawn) [CU080] | 86 | 91 | 96 | 7.4 |
| COc1cccc(OCC(O)CN2CCC(Nc3nccc(C(F)(F)F)n3)CC2)c1 (stereo not drawn) [CU081] | 94 | 93 | 102 | 17 |
| N#Cc1cccc(OCC(O)CN2CCC(Nc3nccc(C(F)(F)F)n3)CC2)c1 (stereo not drawn) [CU082] | 89 | 85 | 100 | 19 |
| OC(COc1ccccc1)CN1CCC(Nc2nccc(C(F)(F)F)n2)C1 (stereo not drawn) [CU083] | 89 | 95 | 100 | 32 |
